Test results: ChEMBL document CHEMBL4038345, “Design, Synthesis, and Biological Evaluation of Novel Selenium-Containing Isocombretastatins and Phenstatins as Antitumor Agents” (J Med Chem, 2017)
Active and inactive are the calls of the source. No cut-off for these calls is given here.

How the values were obtained:
[1] = tested on: MDA-MB-231; assay: Antiproliferative activity against human MDA-MB-231 cells after 48 hrs by MTT assay; conditions: MDA-MB-231, 48 h
[2] = tested on: LoVo; assay: Antiproliferative activity against human LoVo cells after 48 hrs by MTT assay
[3] = tested on: RKO; assay: Antiproliferative activity against human RKO cells after 48 hrs by MTT assay
[4] = tested on: A549; assay: cells; conditions: Homo sapiens, A549, 48 h
[5] = tested on: HepG2; assay: cells; conditions: Homo sapiens, HepG2, 48 h
[6] = Metabolic stability in Sprague-Dawley rat liver microsomes assessed as compound remaining after 30 mins in presence of NADPH by UV-based HPLC-MS/MS analysis; format: ADME, microsome; conditions: read-out: Stability
[7] = Metabolic stability in Sprague-Dawley rat liver microsomes assessed as compound remaining after 60 mins in presence of NADPH by UV-based HPLC-MS/MS analysis; format: ADME, microsome; conditions: read-out: Stability
[8] = Metabolic stability in Sprague-Dawley rat liver microsomes assessed as compound remaining after 90 mins in presence of NADPH by UV-based HPLC-MS/MS analysis; format: ADME, microsome; conditions: read-out: Stability
[9] = Metabolic stability in Sprague-Dawley rat liver microsomes assessed as compound remaining after 120 mins in presence of NADPH by UV-based HPLC-MS/MS analysis; format: ADME, microsome; conditions: read-out: Stability
[10] = tested on: Liver; assay: (§1) Metabolic stability in Sprague-Dawley rat liver microsomes assessed as compound remaining after 150 mins in presence of NADPH by UV-based HPLC-MS/MS analysis; format: ADME, microsome; conditions: microsomes, 2.5 h
[11] = tested on: A549; assay: Antitumor activity against human A549 cells xenografted in BALB/c nude mouse assessed as tumor growth inhibition at 30 mg/kg, ip; format: functional; conditions: read-out: TGI
[12] = tested on: MGC-803; assay: Antiproliferative activity against human MGC803 cells after 48 hrs by MTT assay; conditions: MGC-803, 48 h
[13] = tested on: A549/CDDP; assay: Antiproliferative activity against human A549/CDDP cells after 48 hrs by MTT assay; format: functional, cell-based
[14] = Antiproliferative activity against human HepG2/DOX cells after 48 hrs by MTT assay; format: functional, cell-based
[15] = Resistance index, ratio of IC50 for human A549/CDDP cells to IC50 for human A549 cells; format: functional
[16] = Resistance index, ratio of IC50 for human HepG2/DOX cells to IC50 for human HepG2 cells; format: functional
[17] = as §1; format: ADME, microsome; conditions: Sprague-Dawley, liver microsomes, read-out: Stability
[18] = Half life in Sprague-Dawley rat by UV-based HPLC-MS/MS analysis; format: ADME; conditions: in vivo
[19] = Inhibition of porcine brain tubulin polymerization measured every 60 seconds for 90 mins by DAPI staining-based fluorescence assay; design: species or system Sus scrofa
[20] = tested on: A549; assay: Induction of microtubule disruption in human A549 cells at 5 to 10 nM after 8 to 24 hrs by Hoechst 33342 staining-based laser scanning confocal immunofluorescence microscopic analysis; format: cell-based
[21] = tested on: MCF7; assay: cells; conditions: Homo sapiens, MCF7, 48 h
[22] = tested on: HeLa; assay: cells; conditions: Homo sapiens, 48 h
[23] = tested on: HCT-116; assay: cells; conditions: Homo sapiens, HCT-116, 48 h
[24] = tested on: A2780; assay: cells; conditions: Homo sapiens, A2780, 48 h
Description: Antiproliferative activity against human A2780 cells after 48 hrs by MTT assay

[25] = tested on: Mus musculus; assay: Toxicity in BALB/c nude mouse xenografted with human A549 cells assessed as change in body weight at 30 mg/kg, ip; format: organism-based; conditions: in vivo

| Compound | IC50 [1] | IC50 [2] | IC50 [3] | IC50 [4] | IC50 [5] | other results |
| --- | --- | --- | --- | --- | --- | --- |
| COc1ccc(C(=O)c2cc(OC)c(OC)c([Se]C)c2)cc1C | 997 nM | 3150 nM | 5280 nM | 1730 nM | 2300 nM | – |
| COc1ccc(C(=O)c2cc(OC)c(OC)c([Se]C)c2)cc1O | 24 nM | 53 nM | 79 nM | 55 nM | 31 nM | – |
| C=C(c1ccc(OC)c(OC)c1)c1cc(OC)c(OC)c([Se]C)c1 | 344 nM | 299 nM | 216 nM | 265 nM | 473 nM | – |
| COc1ccc(C(=O)c2cc(OC)c(OC)c([Se]C)c2)cc1Br | 435 nM | 1750 nM | 169 nM | 368 nM | 655 nM | – |
| COc1ccc(/C=C\c2cc(OC)c(OC)c(OC)c2)cc1O [COMBRETASTATIN A4] | – | – | – | – | – | remaining at 0.5 h [6]: 67.2%; remaining at 1 h [7]: 26.4%; remaining at 1.5 h [8]: 22.5%; remaining at 2 h [9]: 19.9%; Stability [10]: Nd(Unstable) |
| COc1ccc(C(=O)c2cc(OC)c(OC)c([Se]C)c2)cc1F | 34 nM | 57 nM | 59 nM | 33 nM | 47 nM | – |
| COc1ccc(C(=O)c2cc(OC)c(OC)c([Se]C)c2)cc1Cl | 865 nM | 189 nM | 253 nM | 949 nM | 1530 nM | – |
| COc1ccc(/C=C\c2cc(OC)c(OC)c(OC)c2)cc1OP(=O)(O)O [FOSBRETABULIN DISODIUM] | – | – | – | – | – | inhibition in vivo at 30 mg/kg [11]: 47.6% |
| COc1cc(C(=O)c2ccc(OC)c(OC)c2OC)cc([Se]C)c1OC | 4260 nM | 523 nM | 874 nM | 2750 nM | 4340 nM | – |
| C=C(c1ccc(OC)c(O)c1)c1cc(OC)c(OC)c(OC)c1 | 8.5 nM | 3.7 nM | 3.8 nM | 3.5 nM | 18.3 nM | IC50 [12]: 19.8 nM; IC50 [13]: 69.1 nM; IC50 [14]: 38.6 nM; Ratio IC50 [15]: 19.7; Ratio IC50 [16]: 2.1; remaining at 0.5 h [6]: 85.7%; remaining at 1 h [7]: 77.1%; remaining at 1.5 h [8]: 67.3%; remaining at 2 h [9]: 49.8%; remaining at 2.5 h [17]: 34.3%; half-life [18]: 102 min; IC50 [19]: 2760 nM; Activity [20]: Active; IC50 [21]: 48 nM; IC50 [22]: 6 nM; IC50 [23]: 24 nM; IC50 [24]: 26 nM |
| COc1ccc(C(=O)c2cc(OC)c(OC)c([Se]C)c2)cc1 | 57 nM | 145 nM | 47 nM | 31 nM | 85 nM | – |
| COc1ccc(C(=O)c2cc(OC)c(OC)c([Se]C)c2)cc1OC | 1020 nM | 766 nM | 306 nM | 285 nM | 1090 nM | – |
| C=C(c1ccc(OC)c(OP(=O)(O)O)c1)c1cc(OC)c(OC)c(OC)c1 | – | – | – | – | – | inhibition in vivo at 30 mg/kg [11]: 52.2% |
| C=C(c1cc(OC)c(OC)c(OC)c1)c1cc(OC)c(OC)c([Se]C)c1 | 3320 nM | 3140 nM | 3520 nM | 473 nM | 1350 nM | – |
| C=C(c1ccc(OC)c(OP(=O)([O-])[O-])c1)c1cc(OC)c(OC)c([Se]C)c1.[Na+].[Na+] | – | – | – | – | – | inhibition in vivo at 30 mg/kg [11]: 72.9%; Activity [25]: Non-Toxic |
| C=C(c1ccc(OC)c(Cl)c1)c1cc(OC)c(OC)c([Se]C)c1 | 83 nM | 254 nM | 451 nM | 196 nM | 298 nM | – |
| C=C(c1ccc(OC)c(F)c1)c1cc(OC)c(OC)c([Se]C)c1 | 24 nM | 33 nM | 82 nM | 29 nM | 87 nM | – |
| COc1cc(C(=O)c2ccc([Se]C)cc2)cc(OC)c1OC | 65 nM | 296 nM | 66 nM | 69 nM | 77 nM | – |
| C=C(c1cc(OC)c(OC)c([Se]C)c1)c1ccc(OC)c(OC)c1OC | 3820 nM | 128 nM | 1040 nM | 1380 nM | 6300 nM | – |
| C=C(c1ccc(OC)c(Br)c1)c1cc(OC)c(OC)c([Se]C)c1 | 667 nM | 171 nM | 343 nM | 236 nM | 691 nM | – |
| C=C(c1ccc(OC)c(C)c1)c1cc(OC)c(OC)c([Se]C)c1 | 599 nM | 496 nM | 245 nM | 141 nM | 607 nM | – |
| C=C(c1ccc([Se]C)cc1)c1cc(OC)c(OC)c(OC)c1 | 178 nM | 279 nM | 216 nM | 97 nM | 386 nM | – |
| C=C(c1ccc(OC)cc1)c1cc(OC)c(OC)c([Se]C)c1 | 96 nM | 91 nM | 107 nM | 72 nM | 126 nM | – |
| COc1ccc(C(=O)c2cc(OC)c(OC)c(OC)c2)cc1O [PHENSTATIN] | 62 nM | 122 nM | 72 nM | 179 nM | 108 nM | – |
| COc1cc(C(=O)c2cc(OC)c(OC)c([Se]C)c2)cc(OC)c1OC | 741 nM | 921 nM | 235 nM | 172 nM | 288 nM | – |
